Measured values taken from PubChem BioAssay (NCI).
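Five concentrations, 48 hours, 96-well plates. GI50 marks 50% less growth. Definition used: TGI = concentration required for complete inhibition of growth.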

What was measured:
Assay in all cases: DTP human tumour cell line panel, 48 h
[1] = tested on: SK-MEL-2 melanoma
[2] = tested on: SK-MEL-5 melanoma
[3] = tested on: NCI-H23 lung
[4] = tested on: ACHN renal
[5] = tested on: LOX IMVI melanoma
[6] = tested on: SF-539 CNS
[7] = tested on: COLO 205 colon
[8] = tested on: RXF 393 renal
[9] = tested on: PC-3 prostate
[10] = tested on: TK-10 renal
[11] = tested on: HCT-15 colon
[12] = tested on: IGROV1 ovarian
[13] = tested on: SW-620 colon
[14] = tested on: NCI/ADR-RES ovarian
[15] = tested on: SN12C renal
[16] = tested on: SNB-75 CNS
[17] = tested on: HOP-62 NSCLC
[18] = tested on: HT29 colon
[19] = tested on: HL-60(TB) leukemia
[20] = tested on: SK-MEL-28 melanoma
[21] = tested on: BT-549 breast
[22] = tested on: SK-OV-3 ovarian
[23] = tested on: SR leukemia
[24] = tested on: 786-0 renal
[25] = tested on: OVCAR-4 ovarian
[26] = tested on: T-47D breast
[27] = tested on: MDA-MB-435
[28] = tested on: UACC-62 melanoma

CCCC(=O)NC(c1ccc(N(CC)CC)cc1)c1cc(C)c2cccnc2c1O (stereo unspecified) was tested, and the GI50 [1] was 399 nM, the TGI [1] was > 42000 nM and the GI50 [2] was 639 nM. The TGI [2] was 5530 nM, the GI50 [3] was 462 nM and the TGI [3] was > 100000 nM. For the same molecule, the GI50 [4] was 422 nM, the TGI [4] was > 24300 nM and the GI50 [5] was 496 nM. For the same molecule, the TGI [5] was > 100000 nM, the GI50 [6] was 462 nM and the TGI [6] was 4560 nM. The GI50 [7] was 398 nM, the TGI [7] was > 100000 nM and the GI50 [8] was 1450 nM. The TGI [8] was > 26900 nM, the GI50 [9] was 477 nM and the TGI [9] was > 100000 nM. For the same molecule, the GI50 [10] was 489 nM, the TGI [10] was > 100000 nM and the GI50 [11] was 323 nM. The TGI [11] was > 100000 nM, the GI50 [12] was 439 nM and the TGI [12] was 14600 nM. For the same molecule, the GI50 [13] was 522 nM, the TGI [13] was > 100000 nM and the GI50 [14] was 366 nM. For the same molecule, the TGI [14] was > 100000 nM, the GI50 [15] was 828 nM and the TGI [15] was > 100000 nM. The GI50 [16] was 199 nM, the TGI [16] was 1800 nM and the GI50 [17] was 511 nM. The TGI [17] was > 100000 nM, the GI50 [18] was 492 nM and the TGI [18] was > 100000 nM. It also gave a GI50 [19] of 331 nM, a TGI [19] of 4850 nM and a GI50 [20] of 561 nM. The TGI [20] was > 100000 nM, the GI50 [21] was 1040 nM and the TGI [21] was > 59200 nM. The GI50 [22] was 635 nM, the TGI [22] was > 100000 nM and the GI50 [23] was 388 nM. For the same molecule, the TGI [23] was > 54400 nM, the GI50 [24] was 763 nM and the TGI [24] was > 38500 nM. For the same molecule, the GI50 [25] was 394 nM, the TGI [25] was > 100000 nM and the GI50 [26] was 675 nM. For the same molecule, the TGI [26] was > 100000 nM, the GI50 [27] was 409 nM and the TGI [27] was > 48600 nM. It also gave a GI50 [28] of 347 nM and a TGI [28] of 1390 nM.
